Test results published in the NIST ThermoML archive (doi:10.1021/acs.jced.7b00654).

Test: xn = mol fraction of the nth substance listed
Conditions: 96.7 kPa, Liquid, Vibrating tube method

CCCCn1cc[n+](C)c1.[Cl-] [1-butyl-3-methylimidazolium chloride] + C[S+](C)[O-]
mass density [kg/m3]
Conditions	x1 = 0.161	x1 = 0.309	x1 = 0.401	x1 = 0.509	x1 = 0.641	x1 = 0.801	x1 = 0.894	x1 = 1
303.15 K	1090.42	1093.72	1092.13	1089.44	1086.22	1083.66	1081.72	1079.41
308.15 K	1086.85	1089.98	1088.58	1086.09	1082.96	1080.69	1078.88	1076.58
313.15 K	1083.14	1086.25	1085.04	1082.74	1079.73	1077.69	1075.99	1073.78
318.15 K	1079.58	1082.54	1081.51	1079.35	1076.52	1074.71	1073.12	1070.99
323.15 K	1075.76	1078.83	1078	1076.05	1073.33	1071.78	1070.22	1068.19
328.15 K	1072.19	1075.14	1074.5	1072.7	1070.18	1068.87	1067.39	1065.36
333.15 K	1068.87	1071.45	1071.01	1069.47	1067.09	1065.95	1064.59	1062.6
338.15 K	1065.13	1067.76	1067.54	1066.13	1064.06	1063.04	1061.79	1059.87
343.15 K	1061.44	1064.1	1064.07	1062.88	1061.11	1060.14	1058.99	1057.15
348.15 K	1057.69	1060.44	1060.63	1059.65	1058.17	1057.25	1056.19	1054.42
353.15 K	1053.72	1056.79	1057.19	1056.42	1055.25	1054.38	1053.41	1051.69

CCCCn1cc[n+](C)c1.[Cl-] [1-butyl-3-methylimidazolium chloride] + CC(=O)N(C)C
mass density [kg/m3]
Conditions	x1 = 0.177	x1 = 0.332	x1 = 0.428	x1 = 0.538	x1 = 0.664	x1 = 0.816	x1 = 0.904	x1 = 1
303.15 K	980.28	1010.24	1025.06	1038.52	1052.4	1066.29	1073.17	1079.41
308.15 K	976.2	1006.61	1021.6	1035.1	1049.19	1063.28	1070.28	1076.58
313.15 K	972.2	1002.98	1018.15	1031.7	1045.95	1060.2	1067.41	1073.78
318.15 K	968.23	999.36	1014.71	1028.35	1042.78	1057.21	1064.54	1070.99
323.15 K	964.27	995.75	1011.28	1024.85	1039.56	1054.27	1061.66	1068.19
328.15 K	960.32	992.15	1007.86	1021.56	1036.44	1051.33	1058.85	1065.36
333.15 K	956.38	988.55	1004.46	1018.33	1033.37	1048.41	1056.06	1062.6
338.15 K	952.45	984.97	1001.06	1015.16	1030.34	1045.52	1053.26	1059.87
343.15 K	948.53	981.38	997.67	1012.07	1027.37	1042.67	1050.47	1057.15
348.15 K	944.61	977.8	994.29	1009.03	1024.45	1039.87	1047.69	1054.42
353.15 K	940.67	974.22	990.92	1006.06	1021.59	1037.13	1044.91	1051.69

c1ccncc1 [pyridine] + CCCCn1cc[n+](C)c1.[Cl-]
mass density [kg/m3]
Conditions	x2 = 0	x2 = 0.163	x2 = 0.313	x2 = 0.404	x2 = 0.514	x2 = 0.644	x2 = 0.803	x2 = 0.895
303.15 K	973.09	1013.2	1035.67	1045.6	1054.49	1063.34	1072.41	1075.89
308.15 K	968.06	1009.09	1032.05	1042.19	1051.2	1060.26	1069.51	1073.02
313.15 K	963.02	1004.97	1028.43	1038.78	1047.94	1057.18	1066.59	1070.16
318.15 K	957.97	1000.85	1024.82	1035.39	1044.72	1054.11	1063.66	1067.3
323.15 K	952.9	996.73	1021.21	1032.01	1041.52	1051.04	1060.72	1064.45
328.15 K	947.82	992.6	1017.6	1028.63	1038.33	1047.99	1057.81	1061.65
333.15 K	942.72	988.47	1014	1025.25	1035.14	1044.96	1054.92	1058.86
338.15 K	937.6	984.34	1010.4	1021.89	1031.93	1041.94	1052.08	1056.09
343.15 K	932.46	980.21	1006.81	1018.53	1028.66	1038.93	1049.29	1053.31
348.15 K	927.3	976.06	1003.22	1015.17	1025.27	1035.92	1046.57	1050.53
353.15 K	922.12	971.91	999.63	1011.79	1021.81	1032.89	1044.02	1047.77

CCCCn1cc[n+](C)c1.[Cl-] [1-butyl-3-methylimidazolium chloride] + CN(C)C=O
mass density [kg/m3]
Conditions	x1 = 0.151	x1 = 0.295	x1 = 0.385	x1 = 0.493	x1 = 0.626	x1 = 0.79	x1 = 0.887	x1 = 1
303.15 K	987.64	1016.34	1030.08	1043.12	1055.89	1067.73	1072.65	1079.41
308.15 K	983.55	1012.63	1026.56	1039.78	1052.75	1064.72	1069.74	1076.58
313.15 K	979.45	1008.93	1023.05	1036.46	1049.6	1061.75	1066.84	1073.78
318.15 K	975.35	1005.24	1019.54	1033.15	1046.6	1058.83	1063.95	1070.99
323.15 K	971.26	1001.56	1016.05	1029.85	1043.35	1055.91	1060.97	1068.19
328.15 K	967.16	997.89	1012.57	1026.56	1040.24	1052.99	1058.13	1065.36
333.15 K	963.07	994.21	1009.1	1023.29	1037.16	1050.07	1055.31	1062.6
338.15 K	958.97	990.55	1005.66	1020.03	1034.08	1047.16	1052.48	1059.87
343.15 K	954.87	986.89	1002.24	1016.78	1031.03	1044.26	1049.67	1057.15
348.15 K	950.78	983.24	998.82	1013.55	1027.98	1041.39	1046.88	1054.42
353.15 K	946.68	979.59	995.4	1010.33	1024.94	1038.53	1044.11	1051.69
